From PubChem BioAssay (NCI)
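All cell lines were grown in 96-well plates and treated with compound for 48 hours. TGI: total growth inhibition.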

How the values were obtained:
Assay in all cases: NCI-60 cell line screen, 48 h
[1] = tested on: OVCAR-3 ovarian
[2] = tested on: OVCAR-5 ovarian
[3] = tested on: 786-0 renal
[4] = tested on: SK-MEL-5 melanoma
[5] = tested on: SF-539 CNS
[6] = tested on: PC-3 prostate
[7] = tested on: OVCAR-4 ovarian
[8] = tested on: MDA-N
[9] = tested on: NCI/ADR-RES ovarian
[10] = tested on: DU-145 prostate
[11] = tested on: RPMI-8226 leukemia
[12] = tested on: HOP-62 NSCLC
[13] = tested on: SK-MEL-28 melanoma
[14] = tested on: SNB-75 CNS
[15] = tested on: T-47D breast
[16] = tested on: LOX IMVI melanoma
[17] = tested on: NCI-H23 lung
[18] = tested on: COLO 205 colon
[19] = tested on: IGROV1 ovarian

`Cc1ccc([N+](=O)[O-])cc1S(=O)(=O)Nc1ccc(C(=O)/C=C/c2ccccc2)cc1` showed a TGI [1] of 30.7 µM, a TGI [2] of 54.7 µM and a TGI [3] of 33.1 µM. For the same compound, the TGI [4] was 32.1 µM, the TGI [5] was greater than 100 µM and the TGI [6] was 30.6 µM. For the same compound, the TGI [7] was 5.51 µM, the TGI [8] was 42.8 µM and the TGI [9] was 66.2 µM. It also gave a TGI [10] of 29.5 µM, a TGI [11] of 37.1 µM and a TGI [12] of 34.5 µM. It also gave a TGI [13] of 49.6 µM, a TGI [14] of 32.3 µM and a TGI [15] of 44.6 µM. It also gave a TGI [16] of 36.7 µM, a TGI [17] of 34.7 µM and a TGI [18] of 44.9 µM. For the same compound, the TGI [19] was 39.6 µM.
Work on `CN1CCC2(CC1)C(=O)N(NC(N)=O)C(=O)C2c1ccccc1` (stereo not drawn) yielded a TGI [1] greater than 100 µM, a TGI [2] greater than 100 µM and a TGI [3] greater than 100 µM. For the same compound, the TGI [4] was greater than 100 µM, the TGI [5] was greater than 100 µM and the TGI [6] was greater than 100 µM. For the same compound, the TGI [7] was greater than 100 µM, the TGI [8] was greater than 100 µM and the TGI [9] was greater than 100 µM. The TGI [10] was greater than 100 µM, the TGI [11] was greater than 100 µM and the TGI [12] was greater than 100 µM. The TGI [13] was greater than 100 µM, the TGI [14] was greater than 100 µM and the TGI [15] was greater than 100 µM. The TGI [16] was greater than 100 µM, the TGI [17] was greater than 100 µM and the TGI [18] was greater than 100 µM. The TGI [19] was greater than 100 µM.
`CC1(C)CCCCC1/C=C/C(CC(O)(C(F)(F)F)C(F)(F)F)=N\Nc1ccc([N+](=O)[O-])cc1[N+](=O)[O-]` (stereo not drawn) was tested, and the TGI [1] was 14.5 µM, the TGI [2] was 13.1 µM and the TGI [3] was 4.7 µM. The TGI [4] was 1.24 µM, the TGI [5] was 0.973 µM and the TGI [6] was 5.32 µM. The TGI [7] was 18.7 µM, the TGI [8] was 11.9 µM and the TGI [9] was greater than 100 µM. It also gave a TGI [10] of 13.4 µM, a TGI [11] of 1.27 µM and a TGI [12] of 10.7 µM. It also gave a TGI [13] of 18.8 µM, a TGI [14] of 11.7 µM and a TGI [15] of 2.99 µM. For the same compound, the TGI [16] was 10.6 µM, the TGI [17] was 0.778 µM and the TGI [18] was 10.8 µM. It also gave a TGI [19] of 15.8 µM.
`CCN1CCC(O)(/C=C/c2cccc(C)c2)C(C(=O)/C=C/c2cccc(C)c2)C1` (stereo not drawn) was tested, and the TGI [1] was 12.4 µM, the TGI [2] was 6.98 µM and the TGI [3] was 5.83 µM. It also gave a TGI [4] of 3.99 µM, a TGI [5] of 5.4 µM and a TGI [6] greater than 25.4 µM. It also gave a TGI [7] of 13.6 µM, a TGI [8] of 8.67 µM and a TGI [9] of 5.99 µM. It also gave a TGI [10] of 13.8 µM, a TGI [11] of 4.78 µM and a TGI [13] of 4.49 µM. For the same compound, the TGI [14] was 7.69 µM, the TGI [15] was 8.38 µM and the TGI [16] was 5.02 µM. For the same compound, the TGI [17] was 4.95 µM, the TGI [18] was 4.67 µM and the TGI [19] was 4.12 µM.
`CC(=O)OC12c3ccccc3C(c3ccccc31)C1C(=O)N(c3ccccc3O)C(=O)C12` (stereo not drawn) was tested, and the TGI [1] was greater than 100 µM, the TGI [2] was greater than 100 µM and the TGI [3] was greater than 100 µM. It also gave a TGI [4] greater than 100 µM, a TGI [5] greater than 100 µM and a TGI [6] greater than 100 µM. It also gave a TGI [7] greater than 100 µM, a TGI [8] greater than 100 µM and a TGI [9] greater than 100 µM. It also gave a TGI [10] greater than 100 µM, a TGI [11] greater than 100 µM and a TGI [12] greater than 100 µM. It also gave a TGI [13] greater than 100 µM, a TGI [14] greater than 100 µM and a TGI [15] greater than 100 µM. The TGI [16] was greater than 100 µM, the TGI [17] was greater than 100 µM and the TGI [18] was greater than 100 µM. The TGI [19] was greater than 100 µM.
For `CO[C@@H]1C[C@H]2[C@@H]3CC[C@H]([C@@H](C)COC(C)=O)[C@@]3(C)CC[C@@H]2[C@@]2(C)CC[C@H]3C[C@]312`, the TGI [1] was 27.7 µM, the TGI [2] was 23.6 µM and the TGI [3] was 30.8 µM. The TGI [4] was 15.2 µM, the TGI [5] was 37.3 µM and the TGI [6] was 29.6 µM. For the same compound, the TGI [7] was 44.8 µM, the TGI [8] was 35.4 µM and the TGI [9] was 30.4 µM. The TGI [10] was 27.8 µM, the TGI [11] was 29.9 µM and the TGI [12] was 31.5 µM. The TGI [13] was 31.9 µM, the TGI [14] was 33.5 µM and the TGI [15] was 31.1 µM. It also gave a TGI [16] of 23.6 µM, a TGI [17] of 25.4 µM and a TGI [18] of 20.2 µM. It also gave a TGI [19] of 30.2 µM.
`COc1ccccc1NC(=S)NNC(=O)c1cc(-c2ccccc2)nc2ccccc12` showed a TGI [1] of 18.2 µM, a TGI [2] of 47 µM and a TGI [3] of 32.8 µM. The TGI [4] was 19.8 µM, the TGI [5] was 28.1 µM and the TGI [6] was 49.3 µM. It also gave a TGI [7] of 85.4 µM, a TGI [8] of 7.78 µM and a TGI [9] of 63.5 µM. It also gave a TGI [10] of 32 µM, a TGI [11] of 53.6 µM and a TGI [12] of 32 µM. For the same compound, the TGI [13] was 62 µM, the TGI [14] was 85 µM and the TGI [15] was 63 µM. The TGI [17] was 32.3 µM, the TGI [18] was 45.8 µM and the TGI [19] was 68.5 µM.
`CC1(C)OP(=O)(c2ccccc2)C=C1Br` (stereo not drawn) was tested, and the TGI [1] was greater than 100 µM, the TGI [2] was greater than 100 µM and the TGI [3] was greater than 100 µM. For the same compound, the TGI [4] was greater than 100 µM, the TGI [5] was greater than 100 µM and the TGI [6] was greater than 100 µM. The TGI [7] was greater than 100 µM, the TGI [8] was greater than 100 µM and the TGI [9] was greater than 100 µM. It also gave a TGI [10] greater than 100 µM, a TGI [11] greater than 100 µM and a TGI [12] greater than 100 µM. The TGI [13] was greater than 100 µM, the TGI [14] was greater than 100 µM and the TGI [15] was greater than 100 µM. The TGI [16] was greater than 100 µM, the TGI [17] was greater than 100 µM and the TGI [18] was greater than 100 µM. For the same compound, the TGI [19] was greater than 100 µM.
Compound `COc1ccc(/C=C2\N=C(N3CCOCC3)NC2=O)cc1` has a TGI [1] greater than 100 µM, a TGI [2] greater than 100 µM and a TGI [3] greater than 100 µM. The TGI [5] was greater than 100 µM, the TGI [6] was greater than 100 µM and the TGI [7] was greater than 100 µM. The TGI [8] was greater than 100 µM, the TGI [9] was greater than 100 µM and the TGI [10] was greater than 100 µM. The TGI [11] was greater than 100 µM, the TGI [12] was greater than 100 µM and the TGI [13] was greater than 100 µM. The TGI [14] was greater than 100 µM, the TGI [15] was greater than 100 µM and the TGI [16] was greater than 100 µM. It also gave a TGI [17] greater than 100 µM, a TGI [18] greater than 100 µM and a TGI [19] greater than 100 µM.
`Nc1ccc(-c2nnc(-c3c(Cl)c(Cl)c(Cl)c(Cl)c3-c3nc4ccc(C(=O)c5ccccc5)cc4[nH]3)o2)cc1` gave a TGI [1] of 62.6 µM, a TGI [2] of 89 µM and a TGI [3] of 36.1 µM. The TGI [4] was 26.4 µM, the TGI [5] was 29.3 µM and the TGI [6] was 49.9 µM. It also gave a TGI [7] greater than 100 µM, a TGI [8] of 19 µM and a TGI [9] of 41 µM. The TGI [10] was 90.5 µM, the TGI [11] was 31.8 µM and the TGI [12] was 79.9 µM. The TGI [13] was greater than 100 µM, the TGI [14] was 69.2 µM and the TGI [15] was 78.5 µM. The TGI [16] was greater than 100 µM, the TGI [17] was greater than 100 µM and the TGI [18] was 50.2 µM. It also gave a TGI [19] greater than 100 µM.
In the case of `CCc1nc2c(n1CC)C(=O)c1ccccc1C2=O`, the TGI [1] is reported as 53.9 µM, the TGI [2] is reported as greater than 100 µM and the TGI [3] is reported as greater than 100 µM. For the same compound, the TGI [4] was greater than 10 µM, the TGI [5] was greater than 100 µM and the TGI [6] was 63.7 µM. It also gave a TGI [7] greater than 100 µM, a TGI [8] greater than 10 µM and a TGI [9] greater than 100 µM. The TGI [10] was greater than 100 µM, the TGI [11] was greater than 100 µM and the TGI [12] was greater than 100 µM. It also gave a TGI [13] greater than 100 µM, a TGI [14] greater than 100 µM and a TGI [15] of 57 µM. It also gave a TGI [17] greater than 100 µM, a TGI [18] of 43.4 µM and a TGI [19] greater than 100 µM.
`CC(C)(Cl)C(Br)CCC(=CCBr)CBr` (mixture of isomers) gave a TGI [1] of 6.27 µM, a TGI [2] of 26.4 µM and a TGI [3] of 3.17 µM. For the same compound, the TGI [4] was 7.77 µM, the TGI [5] was 4.93 µM and the TGI [6] was 18 µM. It also gave a TGI [7] of 5.06 µM, a TGI [8] of 6.13 µM and a TGI [9] greater than 24.5 µM. The TGI [10] was 21.3 µM, the TGI [11] was 3.22 µM and the TGI [12] was 11.7 µM. It also gave a TGI [13] of 10.8 µM, a TGI [14] of 7.31 µM and a TGI [15] of 17.3 µM. It also gave a TGI [17] of 9.07 µM, a TGI [18] of 4.91 µM and a TGI [19] of 5.56 µM.
